How the values were obtained:
Assay in all cases: relative viability (nuclei count vs DMSO), 5 days (fraction); higher = more cells survive
[1] = compound: Cc1ccc2nc(NCCN)c3ncc(C)n3c2c1 + CS(=O)(=O)N1CCN(Cc2cc3nc(-c4cccc5[nH]ncc45)nc(N4CCOCC4)c3s2)CC1 [Pictilisib] (partner 1 µM)
Summary of the method: (§1)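 Lung cancer cell lines, seeded in 1536-well plates, were treated the following day by pin tool with a single drug or with five library-drug doses (not always all listed) in √10 steps on top of a fixed anchor-drug dose. Cells were fixed and nuclei stained in one step after 5 days, and nuclei were counted. Relative viability is the nuclei count for treated wells divided by that for vehicle wells, reported as medians of duplicate plates.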

[2] = compound: O=C(/C=C/c1ccccc1)NC(NC(=S)Nc1cccc2cccnc12)C(Cl)(Cl)Cl [Salubrinal] + O=C(c1cc(Cc2n[nH]c(=O)c3ccccc23)ccc1F)N1CCN(C(=O)C2CC2)CC1 [Olaparib] (partner 8 µM)
Summary of the method: as §1

[3] = compound: Cc1ccc2nc(NCCN)c3ncc(C)n3c2c1 + CC(=O)Nc1cccc(-n2c(=O)n(C3CC3)c(=O)c3c(Nc4ccc(I)cc4F)n(C)c(=O)c(C)c32)c1 [Trametinib] (partner 0.02 µM)
Summary of the method: as §1

[4] = compound: O=C(/C=C/c1ccccc1)NC(NC(=S)Nc1cccc2cccnc12)C(Cl)(Cl)Cl [Salubrinal] + CS(=O)(=O)CCNCc1ccc(-c2ccc3ncnc(Nc4ccc(OCc5cccc(F)c5)c(Cl)c4)c3c2)o1 [Lapatinib] (partner 2 µM)
Summary of the method: as §1

Work on UMC-11 yielded a relative viability ([1]; first compound 0.04 µM) of 0.857, a relative viability ([1]; first compound 0.1265 µM) of 0.692 and a relative viability ([1]; first compound 0.4 µM) of 0.808. The relative viability ([1]; first compound 1.265 µM) was 0.813, the relative viability ([1]; first compound 4 µM) was 0.708 and the relative viability ([2]; first compound 0.08 µM) was 0.355. The relative viability ([2]; first compound 0.253 µM) was 0.368, the relative viability ([2]; first compound 0.8 µM) was 0.386 and the relative viability ([2]; first compound 2.53 µM) was 0.337. For the same cell line, the relative viability ([2]; first compound 8 µM) was 0.393, the relative viability ([3]; first compound 0.04 µM) was 0.707 and the relative viability ([3]; first compound 0.1265 µM) was 0.7. For the same cell line, the relative viability ([3]; first compound 0.4 µM) was 0.72, the relative viability ([3]; first compound 1.265 µM) was 0.703 and the relative viability ([3]; first compound 4 µM) was 0.632. For the same cell line, the relative viability ([4]; first compound 0.08 µM) was 0.931, the relative viability ([4]; first compound 0.253 µM) was 0.918 and the relative viability ([4]; first compound 0.8 µM) was 1.48. It also gave a relative viability ([4]; first compound 2.53 µM) of 1.11 and a relative viability ([4]; first compound 8 µM) of 1.16.
